Results published in US20250177299A1, “MOLECULAR COMPLEXING METHOD, FORMULATION AND MANUFACTURING FOR ENHANCED NUTRIENT DELIVERY” (Ingredient Fusion, LLC, priority 2021, published 2025).
Like-named read-outs stand apart in the source and are kept apart here.

Assay: long term formulation trials of natural stability and dispersion aids
Type: physicochemical
Description: Additionally, popular formularies like lecithin and glycerin were trialed. […] Thus, Glycerin alone was not useful to the invention disclosed herein which requires higher loading rates to achieve improved efficacy and a simplified industrially scalable process.

stability of formulation in trials | Compound | stability of formulation in trials (used as stabilizing/dispersion aid in nano and micro-emulsion formulations, long term trials)
 | OCC(O)CO [Glycerin] | very low stability unless used in very small quantities
high microbial activity | pectin | 
